Values quoted from earlier work in US20040248901A1, “Compositions containing itraconazole and their preparation methods” (priority 2001, published 2004).

Settings: background art

solubility in water: ≤ 1 µg/mL
Structure (SMILES): CCC(C)n1ncn(-c2ccc(N3CCN(c4ccc(OCC5COC(Cn6cncn6)(c6ccc(Cl)cc6Cl)O5)cc4)CC3)cc2)c1=O (mixture of isomers) [itraconazole, (±)-cis-4-[4-[4-[4-[[2-(2,4-dichlorophenyl)-2-(1H-1,2,4-triazol-1-ylmethyloxolan-4-yl]methoxy]phenyl]-1-piperazinyl]phenyl]-2,4-dihydro-2-(1-methylpropyl)-3H-1,2,4-triazol-3-one]
